Assay results: EPA's ToxRefDB 2

Columns and labels:
rat [1] = settings: Carcinogenicity, other, Oral, Water, dose end: 110 week, group: systemic
mouse = settings: Carcinogenicity; b6c3f1; Oral; Water; dose end: 90 week; group: systemic; systemic / pathology microscopic / liver / adenoma/carcinoma combined + systemic / pathology microscopic / liver / carcinoma + systemic / …
rat [2] = settings: Sub-acute repeat dose toxicity, sprague dawley, Oral, Gavage/Intubation, dose end: 28 day, group: systemic
rat [3] = settings: Fertility (Segment I); sprague dawley; Oral; Gavage/Intubation; dose end: 7 GD; group: parental; systemic / in life observation / body weight / body weight + systemic / in life observation / clinical signs / abnormal gait + systemic / in…
rabbit [4] = settings: Prenatal developmental toxicity study, new zealand white, Oral, Gavage/Intubation, dose end: 19 GD, group: maternal
rabbit [5] = settings: Prenatal developmental toxicity study, new zealand white, Oral, Gavage/Intubation, dose end: 19 GD, group: maternal; remark: listed apart in the source
dog [6] = settings: Chronic toxicity; beagle; Oral; Capsule; dose end: 26 week; group: systemic; systemic / in life observation / body weight / body weight gain + systemic / in life observation / clinical signs / [other] + systemic / in …
dog [7] = settings: Sub-acute repeat dose toxicity, beagle, Oral, Capsule, dose end: 4 week, group: systemic
rat [8] = settings: Prenatal developmental toxicity study, sprague dawley, Oral, Gavage/Intubation, dose end: 17 GD
rat [9] = settings: Prenatal developmental toxicity study, sprague dawley, Oral, Gavage/Intubation, dose end: 17 GD; remark: listed apart in the source
[10] = systemic / pathology microscopic / kidney / degeneration + systemic / pathology microscopic / stomach / ulcer
[11] = systemic / pathology microscopic / kidney / degeneration + systemic / pathology microscopic / stomach / ulcer + systemic / pathology …
[12] = systemic / in life observation / clinical signs / unsteady gait + systemic / in life observation / body weight / body weight gain
[13] = systemic / in life observation / clinical signs / unsteady gait + systemic / in life observation / body weight / body weight gain + systemic…
[14] = systemic / in life observation / body weight / body weight gain + systemic / in life observation / food consumption / food consumption
[15] = systemic / in life observation / body weight / body weight gain + systemic / in life observation / food consumption / food consumption + …
[16] = systemic / in life observation / body weight / body weight gain + systemic / in life observation / clinical signs / defecation + systemic / …
[17] = systemic / in life observation / clinical signs / abnormal feces + systemic / in life observation / clinical signs / body cold to touch + …
[18] = systemic / clinical chemistry / albumin / albumin + systemic / clinical chemistry / cholesterol / cholesterol + systemic / clinical …
[19] = systemic / clinical chemistry / cholesterol / cholesterol + systemic / clinical chemistry / lipids / phospholipids
[20] = group: developmental, developmental / developmental malformation / mouth / jaw / cleft palate
[21] = group: developmental, developmental / developmental malformation / mouth / jaw / cleft palate + systemic / in life observation / body weight / fetal weight
[22] = group: maternal, systemic / in life observation / clinical signs / impaired righting reflex + systemic / in life observation / clinical signs / piloerection
[23] = group: maternal, systemic / in life observation / body weight / body weight gain + systemic / in life observation / clinical signs / abnormal gait + systemic…

## C1COCCO1 [1,4-Dioxane]
Rat [1]; [10]
  LOAEL: 240 mg/kg/day
  NOAEL: < 240 mg/kg/day
Rat [1]; [11]
  LEL: 240 mg/kg/day
  NEL: < 240 mg/kg/day
mouse
  LEL: 380 mg/kg/day
  LOAEL: > 830 mg/kg/day
  NEL: < 380 mg/kg/day
  NOAEL: ≥ 830 mg/kg/day

## COc1cccc(-c2ccc(/C=C\CN3CCCCCC3)cc2Cl)c1.Cl
Rat [2]; [12]
  LOAEL: 30 mg/kg/day
  NOAEL: < 30 mg/kg/day
Rat [2]; [13]
  LEL: 30 mg/kg/day
  NEL: < 30 mg/kg/day
Rat [3]
  LEL: 90 mg/kg/day
  LOAEL: 90 mg/kg/day
  NEL: 30 mg/kg/day
  NOAEL: 30 mg/kg/day
Rabbit [4]; [14]
  LEL: 35 mg/kg/day
  LOAEL: 35 mg/kg/day
Rabbit [4]; [15]
  NEL: 15 mg/kg/day
  NOAEL: 15 mg/kg/day
Rabbit [5]; [16]
  LEL: 25 mg/kg/day
  NEL: < 25 mg/kg/day
Rabbit [5]; [17]
  LOAEL: > 150 mg/kg/day
  NOAEL: ≥ 150 mg/kg/day
Dog [6]
  LEL: 15 mg/kg/day
  LOAEL: 15 mg/kg/day
  NEL: 7.5 mg/kg/day
  NOAEL: 7.5 mg/kg/day
Dog [7]; [18]
  LOAEL: 10 mg/kg/day
  NOAEL: 5 mg/kg/day
Dog [7]; [19]
  LEL: 5 mg/kg/day
  NEL: < 5 mg/kg/day
Rat [8]; [20]
  LEL: 60 mg/kg/day
  LOAEL: 60 mg/kg/day
Rat [8]; [21]
  NEL: 30 mg/kg/day
  NOAEL: 30 mg/kg/day
Rat [8]; [22]
  LEL: 30 mg/kg/day
  LOAEL: 30 mg/kg/day
  NEL: < 30 mg/kg/day
  NOAEL: < 30 mg/kg/day
Rat [9]; [20]
  LEL: 75 mg/kg/day
  LOAEL: 75 mg/kg/day
  NEL: 35 mg/kg/day
  NOAEL: 35 mg/kg/day
Rat [9]; [23]
  LEL: 35 mg/kg/day
  LOAEL: 35 mg/kg/day
  NEL: 15 mg/kg/day
  NOAEL: 15 mg/kg/day
